Reference: patent US10485769B2, “Cholesteryl ester transfer protein (CETP) inhibition in the treatment of cancer” (KING ABDULLAH UNIVERSITY OF SCIENCE AND TECHNOLOGY, priority 2015, dated 2019)
Where two headings read alike, the source gives them in different places.

What was measured:
MCF-7 cells [1] = assay: MTT assay, viability of MCF-7 cells; conditions: for effect on cell viability: 1 and 2.5 μM, 24 h
Experimental: FIG. 1: MTT and APOPercentage assays to assess the differential cytotoxicity and apoptosis inducing potential of AP and PL in MCF-7 cells. Viability was determined using MTT assay after incubating the MCF-7 cells with different concentrations of AP and PL (A), at different time-points (B). The apoptosis inducing potential of 10 μM AP and PL in MCF-7 was determined by using APOPercentage assay performed at intervals of 2 and 6 h.
The activities of a compound described herein can be evaluated by methods known in the art, e.g., MTT (3-[4,5-dimethylthiazol-2-yl]-2,5-diphenyltetrazolium bromide) assay, APOPercentage, clonogenic assay, ATP assay, or Extreme Drug Resistance (EDR) assay. See Freuhauf, J. P. and Manetta, A., Chemosensitivity Testing in Gynecologic Malignancies and Breast Cancer 19, 39-52 (1994), which is incorporated by reference in its entirety. The results are then plotted to generate drug response curves, which allow IC50 values (the concentration of a compound required to inhibit 50% of the population of the treated cells) to be determined. […] In general, however, a dose can be in the range of from about 0.01 to about 10 mg/kg of body weight per day.
As a first step, MCF-7 cells were treated with 1, 2.5, 5 and 10 μM PL or AP for 24 h and percentage viability was determined after 24 h using the MTT assay. […] Next the effect of 10 μM PL drug on cell viability over time was determined. […] The percentage of cells undergoing apoptosis at the early time points i.e. 2 and 6 h was determined by the APOPercentage assay. APOPercentage dye binds to extracellularly exposed phosphatidylserine (PS) on the plasma membrane of apoptotic cells.

[2] = tested on: apoptosis-associated proteins in MCF-7 cells; assay: Western blotting of apoptosis-associated proteins; type: cell-based, human; conditions: 10 μM; for PARP-1 cleavage: 12 and 24 h time points; for expression of DNA damage marker pH2AX: as early as 2 h, remained elevated
Experimental: FIG. 2: Mode of induction in MCF-7 cells after treatment with AP and PL was determined by measuring changes in MOMP and levels of apoptosis-associated proteins. The cells were incubated with 10 μM AP and PL for different time intervals to capture the timeline of apoptosis induction in MCF-7 cells. The changes in MOMP were measured using flow cytometry after treating MCF-7 cells with PL and AP for 1, 2 and 4 h (A). […] F).
Intrinsic apoptosis is activated by the mitochondria where MOMP is reduced and the imbalance between pro- and anti-apoptotic factors results in activation of caspases 9, 3 and 7, cleavage of caspase substrate like PARP-1 (Poly [ADP-ribose] polymerase 1) and fragmentation of DNA. After treatment with 10 μM PL and AP alterations in the ratio of Bax and Bcl2 were observed and pro-caspase 9 levels were reduced (FIGS. 2B and C).

BJ cells [3] = assay: BJ cell morphology on treatment (lipid raft staining experiment); type: cell-based, human
MCF-7 CETP siRNA cells = assay: Total cholesterol in CETP knock-out MCF-7 cells, Amplex Red; type: cell-based, human; conditions: 10 μM
Experimental: FIG. 8: Levels of total cholesterol in MCF-7 control (cntl) siRNA and CETP knock-out cells after treatment with 10 μM PL or AP were determined with the Amplex Red assay kit. Values represent the means±SD of three independent experiments.
We measured the amount of cholesterol in CETP knock-out MCF-7 untreated and/or treated with 10 μM AP and PL. […] (FIG. 8).

BJ CETP siRNA cells = assay: Cholesterol levels in BJ CETP siRNA cells; type: cell-based, human; conditions: treated with PL or AP or left untreated
CETP = target: T1, CETP (Homo sapiens, UniProt P11597); assay: Thermal shift assay (TSA) in MCF-7 cells; type: binding; conditions: 10 μM, two hours, 56° C. to 70° C.; untreated decreases around 64° C.
T1 construct: endogenous in cells; host or cells: MCF-7
T1 sequence (P11597 18-493): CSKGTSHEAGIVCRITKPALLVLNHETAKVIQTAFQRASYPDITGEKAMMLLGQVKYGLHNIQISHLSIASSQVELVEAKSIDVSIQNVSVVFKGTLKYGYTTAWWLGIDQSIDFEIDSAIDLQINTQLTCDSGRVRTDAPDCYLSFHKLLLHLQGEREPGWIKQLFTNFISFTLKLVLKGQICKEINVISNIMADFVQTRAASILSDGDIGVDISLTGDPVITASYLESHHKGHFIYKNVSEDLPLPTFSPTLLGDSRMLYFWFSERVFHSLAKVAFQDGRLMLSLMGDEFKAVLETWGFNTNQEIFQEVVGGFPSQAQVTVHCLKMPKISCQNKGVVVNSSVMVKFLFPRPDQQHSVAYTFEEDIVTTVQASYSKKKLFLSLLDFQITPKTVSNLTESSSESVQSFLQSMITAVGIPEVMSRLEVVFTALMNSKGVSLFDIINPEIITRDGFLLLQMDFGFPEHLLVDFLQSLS
Experimental: FIG. 14: Illustration of the amount of stabilized CETP protein in the presence of compounds using TSA. MCF-7 cells were left untreated (Untx) and were treated with 10 μM of AP/PL for two hours. TSA was performed using temperature range 56° C. to 70° C. with 2° C. intervals. The western blotting was performed after the assay and CETP was detected. The experiment was performed in duplicate.
Thermal shift assay (TSA) captures the drug protein binding using the fact that the thermostability of the protein is changed after ligand binding. We did three runs of TSA [20] to identify direct binding of AP with CETP (FIG. 14). […] Further studies are needed to study the effects of thermostability on function of CETP.

BJ cells [4] = assay: Viability of normal cells, AP combined with chemotherapeutic drugs; type: cell-based, human
Experimental: (§1) FIG. 13: The effect of AP on viability of BJ and MCF-7 cells when combined with different doses of various chemotherapeutic drugs for 24 h. Values represent the means±SD of three replicates.
(§2) We anticipated that AP might have the potential to reduce toxicity and increase efficacy of known chemotherapeutic drugs which may enhance the usage of these drugs at lower concentrations with increased cancer killing effects. To test this preliminary, we treated normal (BJ) and Cancer (MCF-7) cells with different chemotherapeutic drugs as summarized in FIG. 13.
(§3) It is also clear from data that the cancer killing effect achieved using 20 μM tamoxifen was possible to achieve using a combination of AP with 10 μM tamoxifen while enhancing the viability of normal cells at the same time.

MCF-7 cells [5] = assay: Viability of cancer cells, AP combined with chemotherapeutic drugs; type: cell-based, human; conditions: 24 h
Experimental: as §1, §2, §3

MCF-7 cells [6] = conditions: as compared to BJ and triple negative BT20 cells; previously shown [1]; cited from earlier work

| SMILES | effect on cell viability (MCF-7 cells [1]) | viability at 10 µM (MCF-7 cells [1]; Homo sapiens, MCF7, 6 h, read-out: cell viability reduced to) [%] | pro-caspase 9 levels [2] | ratio of Bax and Bcl2 [2] | reduction of pro-caspase 7, time observed [2] | PARP-1 cleavage [2] | expression of DNA damage marker pH2AX [2] | effects on BJ cell morphology (BJ cells [3]) | total cholesterol in knock-out cells versus control siRNA cells (MCF-7 CETP siRNA cells) | cholesterol levels (BJ CETP siRNA cells) | thermostability of CETP protein (CETP) | cell viability reduced to (MCF-7 cells [1]; 10 μM, as early as 6 h) [%] | effects on BJ cell morphology (BJ cells [3]; treated with PL or AP) | increase of cell viability of normal cells (BJ cells [4]; AP in combination with 5-Florouracil, 24 h) [%] | increase of viability of normal cells (BJ cells [4]; AP with 10 μM of tamoxifen, 24 h) [%] | rescue of normal cells from toxic effects of tamoxifen (BJ cells [4]; AP with tamoxifen at higher concentrations) | reduction of viability of cancer cells (MCF-7 cells [5]; AP in combination with 5-Florouracil) [%] | reduction of viability of cancer cells (MCF-7 cells [5]; AP with 10 μM of tamoxifen) [%] | selectivity against MCF-7 (MCF-7 cells [6]) |
| --- | --- | --- | --- | --- | --- | --- | --- | --- | --- | --- | --- | --- | --- | --- | --- | --- | --- | --- | --- |
| CC1=CC(=O)c2c(O)cccc2C1=O [PL, 5-hydroxy-2-methyl-1,4-naphthoquinone, reference compound] | no significant effect | 50 | reduced | alterations | as early as 2 and 6 h | substantially reduced from full length to the cleaved fragment | significantly increased | no adverse effects | did not show results any different | No significant changes | more stable even at 70 °C | – | – | – | – | – | – | – | – |
| CC(=O)Oc1cccc2c1C(=O)C=C(C)C2=O [AP, Acetyl Plumbagin] | no significant effect | – | reduced | alterations | reduced at 12 h | substantially reduced from full length to the cleaved fragment | significantly increased | – | did not show results any different | No significant changes | more stable even at 70 °C | 50 | no adverse effects | 7 | 7 | unable to rescue | 76 | 50 | selective activity |
